The text below walks through data of patent US20070142401A1, “Indolyl-pyrroledione derivatives for the treatment of neurological and vascular disorders related to beta-amyloid generation and/or aggregation” (NOVARTIS AG, priority 2003, published 2007).

The structures appear in SMILES notation.

The subject of data set [1] is Aβ secretion in HEK/APPswe cells. Nature of the data set: Aβ secretion in HEK/APPswe cell culture medium (sandwich ELISA). It is filed as cell-based. The following applies: HEK/APPswe cell cultures, 24 hours after compound addition. On the procedure:
HEK/APPswe cells are plated in microtiter plates precoated with 10 μg/ml poly-D-lysine at 12′000 cells/well in 100 μl/well DMEM medium supplemented with 10% FCS, 0.25 mg/ml G418 sulfate, 1% penicillin streptomycin. The following day, supernatant is replaced with 90 μl/well of fresh medium and 10 μl/well of compound diluted in culture medium are added. Two types of control wells are used: cell culture medium without cells plus 10 μl/well of all compound dilutions (background signals) and cell culture medium from untreated cells (positive control). 24 hours later after compound addition, conditioned medium is collected and Aβ levels determined by a specific sandwich ELISA.
For the sandwich ELISA, the maxisorp microtiterplates are coated overnight at 4° C. with 100 μl/well of the monoclonal antibody 25H 10 diluted 1:1000 in PB for Aβ40 detection or monoclonal antibody B10E7 diluted 1:2750 for detection of Aβ42. […] After 1 hour incubation at room temperature wells are washed as described above and alkaline phosphatase activity is determined by adding 100 μl/well of diethanolamine buffer, pH 9.8 (100 mM diethanolamine, 1 mM MgCl2, pH adjusted to 9.8 with 2 M HCl) containing the chemiluminescent CSPD substrate (25 mM stock solution diluted 1:416) and the enhancer Emerald II (diluted 1:10). […] Samples are measured in triplicate. […]
Background: An ELISA detects its analyte on a solid surface through an enzyme-linked reagent.

The next data set addresses Flt-1 (Homo sapiens, UniProt P17948). Nature of the data set: cell-free enzyme assay Flt-1. It is filed as biochemical.
The target in a further data set is T1, Flt-3 (Homo sapiens, UniProt P36888).
T1 sequence (P36888 27-993): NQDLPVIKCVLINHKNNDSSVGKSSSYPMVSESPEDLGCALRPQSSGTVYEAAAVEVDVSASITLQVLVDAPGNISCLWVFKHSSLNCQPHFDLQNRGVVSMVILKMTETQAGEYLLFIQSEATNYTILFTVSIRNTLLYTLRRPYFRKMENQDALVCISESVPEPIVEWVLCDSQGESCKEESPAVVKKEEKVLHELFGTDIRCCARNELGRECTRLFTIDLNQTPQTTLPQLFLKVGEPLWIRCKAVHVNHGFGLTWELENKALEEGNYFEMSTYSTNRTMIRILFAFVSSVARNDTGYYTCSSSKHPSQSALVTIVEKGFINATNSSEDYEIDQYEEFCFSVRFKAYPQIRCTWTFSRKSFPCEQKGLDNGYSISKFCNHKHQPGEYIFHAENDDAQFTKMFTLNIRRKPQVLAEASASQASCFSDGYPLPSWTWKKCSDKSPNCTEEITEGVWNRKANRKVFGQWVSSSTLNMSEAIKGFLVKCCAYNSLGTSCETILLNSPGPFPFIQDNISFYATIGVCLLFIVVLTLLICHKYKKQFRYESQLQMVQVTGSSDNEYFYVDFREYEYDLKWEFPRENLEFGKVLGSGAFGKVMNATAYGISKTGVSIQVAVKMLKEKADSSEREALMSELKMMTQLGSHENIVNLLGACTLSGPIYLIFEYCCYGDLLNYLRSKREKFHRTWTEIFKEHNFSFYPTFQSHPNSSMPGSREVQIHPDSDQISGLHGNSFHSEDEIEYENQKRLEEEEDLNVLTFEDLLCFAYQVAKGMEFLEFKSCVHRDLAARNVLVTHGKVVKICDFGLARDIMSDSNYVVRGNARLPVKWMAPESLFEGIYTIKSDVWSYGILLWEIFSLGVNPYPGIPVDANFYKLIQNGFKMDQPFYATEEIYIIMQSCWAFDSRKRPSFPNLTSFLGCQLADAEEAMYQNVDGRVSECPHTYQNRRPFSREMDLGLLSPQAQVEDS
Nature of the data set: cell-free enzyme assay Flt-3. It is filed as biochemical.

The next data set has as its target T2, PKC epsilon (Homo sapiens, UniProt Q02156).
T2 sequence (Q02156 1-737): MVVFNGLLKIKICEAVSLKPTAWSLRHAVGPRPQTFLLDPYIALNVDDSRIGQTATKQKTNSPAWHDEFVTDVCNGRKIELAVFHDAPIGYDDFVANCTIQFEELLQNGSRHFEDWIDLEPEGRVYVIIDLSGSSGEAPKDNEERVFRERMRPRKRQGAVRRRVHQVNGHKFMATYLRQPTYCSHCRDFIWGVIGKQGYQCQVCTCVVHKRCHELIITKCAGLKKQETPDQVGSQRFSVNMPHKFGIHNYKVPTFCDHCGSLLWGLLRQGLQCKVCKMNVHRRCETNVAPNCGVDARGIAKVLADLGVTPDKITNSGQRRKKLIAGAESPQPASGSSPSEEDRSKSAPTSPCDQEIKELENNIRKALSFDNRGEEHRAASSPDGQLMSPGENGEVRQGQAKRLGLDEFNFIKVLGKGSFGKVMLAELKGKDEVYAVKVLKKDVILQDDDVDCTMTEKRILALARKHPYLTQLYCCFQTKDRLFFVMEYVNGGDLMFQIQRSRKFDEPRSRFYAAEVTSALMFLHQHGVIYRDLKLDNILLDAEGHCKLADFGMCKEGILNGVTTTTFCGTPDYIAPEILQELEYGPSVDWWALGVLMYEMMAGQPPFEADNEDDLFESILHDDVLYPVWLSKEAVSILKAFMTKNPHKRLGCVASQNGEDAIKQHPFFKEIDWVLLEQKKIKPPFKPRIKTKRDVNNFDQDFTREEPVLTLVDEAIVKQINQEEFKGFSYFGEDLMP
Nature of the data set: cell-free enzyme assay PKC epsilon. The data set is classed as biochemical.

The target in the next data set is PKC beta (Homo sapiens, UniProt P05771). Nature of the data set: cell-free enzyme assay PKC beta. The data set is classed as biochemical.
Chain of PKC beta (P05771 whole entry, species assumed): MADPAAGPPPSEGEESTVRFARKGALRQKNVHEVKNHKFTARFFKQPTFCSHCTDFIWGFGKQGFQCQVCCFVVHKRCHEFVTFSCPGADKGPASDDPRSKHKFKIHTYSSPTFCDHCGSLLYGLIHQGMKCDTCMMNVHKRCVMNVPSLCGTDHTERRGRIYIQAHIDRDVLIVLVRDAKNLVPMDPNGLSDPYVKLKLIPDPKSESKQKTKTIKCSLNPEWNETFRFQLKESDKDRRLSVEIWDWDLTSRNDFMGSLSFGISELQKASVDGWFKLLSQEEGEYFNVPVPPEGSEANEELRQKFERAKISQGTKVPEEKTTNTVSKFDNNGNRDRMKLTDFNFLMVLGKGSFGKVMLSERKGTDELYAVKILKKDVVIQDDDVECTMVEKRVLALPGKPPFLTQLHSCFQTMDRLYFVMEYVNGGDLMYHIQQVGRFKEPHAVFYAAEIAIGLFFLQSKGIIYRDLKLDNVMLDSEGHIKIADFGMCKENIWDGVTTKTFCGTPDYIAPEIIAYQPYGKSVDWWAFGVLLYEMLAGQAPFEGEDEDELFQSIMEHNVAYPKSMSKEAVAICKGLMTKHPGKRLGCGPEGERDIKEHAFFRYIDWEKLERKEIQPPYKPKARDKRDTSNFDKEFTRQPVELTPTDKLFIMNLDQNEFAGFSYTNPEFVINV
A further data set has as its target CDK-1 (Homo sapiens, UniProt P06493). Nature of the data set: cell-free enzyme assay CDK-1. The data set is classed as biochemical.
The target in a further data set is PKC gamma (Homo sapiens, UniProt P05129). Nature of the data set: cell-free enzyme assay PKC gamma. It is filed as biochemical.
The next data set has as its target PKC theta (Homo sapiens, UniProt Q04759). Nature of the data set: cell-free enzyme assay PKC theta. It is filed as biochemical.
The target in the next data set is Flt-2 (Homo sapiens, UniProt P11362). Nature of the data set: cell-free enzyme assay Flt-2. The data set is classed as biochemical.
Chain of Flt-2 (P11362 22-822, species assumed): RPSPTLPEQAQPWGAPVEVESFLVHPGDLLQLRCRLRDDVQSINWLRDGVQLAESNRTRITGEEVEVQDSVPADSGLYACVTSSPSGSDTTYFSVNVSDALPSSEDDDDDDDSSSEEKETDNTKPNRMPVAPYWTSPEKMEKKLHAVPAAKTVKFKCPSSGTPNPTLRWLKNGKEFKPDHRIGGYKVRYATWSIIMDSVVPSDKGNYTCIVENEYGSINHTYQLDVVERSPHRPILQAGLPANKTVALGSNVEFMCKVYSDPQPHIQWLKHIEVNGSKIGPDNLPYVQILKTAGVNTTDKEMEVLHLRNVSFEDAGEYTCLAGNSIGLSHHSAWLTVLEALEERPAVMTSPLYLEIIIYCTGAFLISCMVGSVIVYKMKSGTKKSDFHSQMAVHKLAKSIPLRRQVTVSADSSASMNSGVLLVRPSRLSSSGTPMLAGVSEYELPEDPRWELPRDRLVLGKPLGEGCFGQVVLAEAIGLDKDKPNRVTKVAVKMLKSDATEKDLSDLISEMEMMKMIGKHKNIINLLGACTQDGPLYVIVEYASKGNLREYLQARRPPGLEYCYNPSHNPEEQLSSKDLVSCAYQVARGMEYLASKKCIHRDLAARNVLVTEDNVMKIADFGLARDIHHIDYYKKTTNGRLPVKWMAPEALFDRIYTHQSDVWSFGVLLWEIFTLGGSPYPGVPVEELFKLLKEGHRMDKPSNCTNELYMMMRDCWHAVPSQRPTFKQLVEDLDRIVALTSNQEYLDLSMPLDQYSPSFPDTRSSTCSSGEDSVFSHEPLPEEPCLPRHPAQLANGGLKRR
The target in the next data set is PKC alpha (Homo sapiens, UniProt P17252). Nature of the data set: cell-free enzyme assay PKC alpha. The data set is classed as biochemical.
The target of another data set is Flt-4 (Homo sapiens, UniProt P35916). Nature of the data set: cell-free enzyme assay Flt-4. The data set is classed as biochemical.
Another data set concerns the target KDR (Homo sapiens, UniProt P35968). Nature of the data set: cell-free enzyme assay KDR. The data set is classed as biochemical.
The subject of the next data set is HEK/APPswe cells. Nature of the data set: MTS assay (cytotoxicity). The data set is classed as cell-based. The following applies: at concentrations below 1 microM. On the procedure:
To determine cytotoxicity, cells are tested by the MTS colorimetric kit performed essentially according to the manufacturer's specifications (Promega, #G5430X). After collecting the conditioned medium for the sandwich ELISA, the rest of the conditioned medium is removed completely and replaced with 100 μl/well culture medium containing one fifth of MTS solution prepared as recommended in the kit. After 3 hours incubation at 37° C., absorbance is read at an OD of 490 nm with a reference wavelength set to 630 nm. Values are given as % metabolic rate (n=6). The 0% value is calculated from wells which had no cells, 100% from wells with an untreated cell layer

Chain of PKC theta (Q04759 whole entry): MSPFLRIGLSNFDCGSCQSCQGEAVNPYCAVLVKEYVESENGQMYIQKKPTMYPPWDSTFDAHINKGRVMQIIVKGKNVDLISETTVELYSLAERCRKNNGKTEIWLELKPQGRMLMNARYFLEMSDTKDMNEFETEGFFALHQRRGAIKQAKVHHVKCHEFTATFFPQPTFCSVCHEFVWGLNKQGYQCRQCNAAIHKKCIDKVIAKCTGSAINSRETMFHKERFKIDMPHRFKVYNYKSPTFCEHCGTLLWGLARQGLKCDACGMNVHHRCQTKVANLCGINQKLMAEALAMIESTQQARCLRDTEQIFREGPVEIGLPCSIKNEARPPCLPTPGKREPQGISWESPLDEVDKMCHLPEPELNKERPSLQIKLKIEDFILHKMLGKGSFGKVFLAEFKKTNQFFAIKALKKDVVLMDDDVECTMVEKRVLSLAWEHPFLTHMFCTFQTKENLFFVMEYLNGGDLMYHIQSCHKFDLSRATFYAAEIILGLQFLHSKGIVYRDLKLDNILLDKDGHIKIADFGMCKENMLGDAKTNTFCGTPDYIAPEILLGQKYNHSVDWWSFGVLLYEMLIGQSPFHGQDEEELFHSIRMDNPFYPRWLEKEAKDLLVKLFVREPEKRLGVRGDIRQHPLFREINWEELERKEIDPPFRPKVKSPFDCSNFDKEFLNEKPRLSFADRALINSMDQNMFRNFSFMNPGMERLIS
Chain of KDR (P35968 20-1356, species assumed): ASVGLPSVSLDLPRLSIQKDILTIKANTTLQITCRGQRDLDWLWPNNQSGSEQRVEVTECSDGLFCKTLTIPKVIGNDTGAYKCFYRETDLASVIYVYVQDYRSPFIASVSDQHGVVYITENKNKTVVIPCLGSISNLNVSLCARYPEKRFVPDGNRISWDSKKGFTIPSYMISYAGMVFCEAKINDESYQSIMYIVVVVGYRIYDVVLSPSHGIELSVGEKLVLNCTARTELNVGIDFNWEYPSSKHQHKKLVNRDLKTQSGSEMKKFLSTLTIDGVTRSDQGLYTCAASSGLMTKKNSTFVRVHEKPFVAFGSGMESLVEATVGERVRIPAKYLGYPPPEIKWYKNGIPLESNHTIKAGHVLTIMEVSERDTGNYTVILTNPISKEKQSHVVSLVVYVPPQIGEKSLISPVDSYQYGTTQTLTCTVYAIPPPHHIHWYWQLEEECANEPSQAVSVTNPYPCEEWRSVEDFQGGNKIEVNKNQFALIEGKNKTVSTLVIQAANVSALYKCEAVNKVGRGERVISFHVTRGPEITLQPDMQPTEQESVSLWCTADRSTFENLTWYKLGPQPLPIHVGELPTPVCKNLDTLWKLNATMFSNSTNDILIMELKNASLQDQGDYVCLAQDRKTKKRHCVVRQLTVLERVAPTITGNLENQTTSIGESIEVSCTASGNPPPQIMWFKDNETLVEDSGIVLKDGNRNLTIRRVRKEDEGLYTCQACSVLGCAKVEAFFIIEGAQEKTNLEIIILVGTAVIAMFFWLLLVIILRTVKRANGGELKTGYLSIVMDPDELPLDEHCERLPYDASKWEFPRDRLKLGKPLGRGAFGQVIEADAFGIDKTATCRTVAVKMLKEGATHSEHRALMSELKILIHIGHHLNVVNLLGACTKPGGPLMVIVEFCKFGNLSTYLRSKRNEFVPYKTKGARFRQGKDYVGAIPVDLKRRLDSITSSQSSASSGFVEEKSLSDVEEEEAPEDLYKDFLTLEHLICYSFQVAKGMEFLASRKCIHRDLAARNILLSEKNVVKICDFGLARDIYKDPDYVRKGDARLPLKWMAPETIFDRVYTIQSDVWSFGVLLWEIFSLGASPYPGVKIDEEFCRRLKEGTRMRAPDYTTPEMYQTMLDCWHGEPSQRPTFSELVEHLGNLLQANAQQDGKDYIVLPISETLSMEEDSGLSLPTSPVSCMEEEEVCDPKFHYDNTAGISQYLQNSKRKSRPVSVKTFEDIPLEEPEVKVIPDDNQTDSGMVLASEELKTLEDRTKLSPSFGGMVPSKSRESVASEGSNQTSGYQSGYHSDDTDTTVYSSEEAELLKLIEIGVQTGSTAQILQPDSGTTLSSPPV
Chain of CDK-1 (P06493 whole entry, species assumed): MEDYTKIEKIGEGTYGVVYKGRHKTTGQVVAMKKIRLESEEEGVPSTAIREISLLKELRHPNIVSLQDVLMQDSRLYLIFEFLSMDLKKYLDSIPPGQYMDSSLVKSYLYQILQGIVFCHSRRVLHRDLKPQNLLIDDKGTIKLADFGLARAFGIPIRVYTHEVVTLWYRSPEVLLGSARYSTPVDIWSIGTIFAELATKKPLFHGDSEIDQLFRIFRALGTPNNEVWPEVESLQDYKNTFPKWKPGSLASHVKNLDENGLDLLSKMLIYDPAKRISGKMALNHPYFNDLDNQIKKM
Chain of CDK-1 (P14635 whole entry partner, species assumed): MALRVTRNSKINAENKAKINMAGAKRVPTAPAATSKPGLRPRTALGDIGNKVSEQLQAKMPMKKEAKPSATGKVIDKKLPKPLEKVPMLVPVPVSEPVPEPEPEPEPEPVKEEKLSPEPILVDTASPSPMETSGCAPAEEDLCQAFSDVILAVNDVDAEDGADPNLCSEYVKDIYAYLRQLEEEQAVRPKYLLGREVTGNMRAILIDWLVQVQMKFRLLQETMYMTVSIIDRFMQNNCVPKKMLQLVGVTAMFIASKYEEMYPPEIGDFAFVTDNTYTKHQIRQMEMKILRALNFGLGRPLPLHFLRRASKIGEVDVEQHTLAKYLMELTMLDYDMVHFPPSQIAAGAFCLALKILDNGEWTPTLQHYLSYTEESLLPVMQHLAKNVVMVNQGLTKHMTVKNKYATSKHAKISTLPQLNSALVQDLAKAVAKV

`CN1CCN(c2cc(C3=C(c4c[nH]c5ccccc45)C(=O)NC3=O)c(Cl)c(C(F)(F)F)c2)CC1` [Example 2, 3-[2-Chloro-5-(4-methyl-piperazin-1-yl)-3-trifluoromethyl-phenyl]-4-(1H-indol-3-yl)-pyrrole-2,5-dione]: the “concentration giving a clear reduction of Aβ secretion in the medium” value in data set [1] is “below 1 microM”. Moreover, the “activity in cell-free enzyme assay, Flt-1” value at Flt-1 is less than 10 µM. Besides, the “activity in cell-free enzyme assay, Flt-3” value at Flt-3 is less than 10 µM. At PKC epsilon, the “activity in cell-free enzyme assay, PKC epsilon” value is 514 nM. Also, the “activity in cell-free enzyme assay, PKC beta” value on PKC beta was determined as 30 nM. The “activity in cell-free enzyme assay, CDK-1” value on CDK-1 was less than 10 µM. Besides, the “activity in cell-free enzyme assay, PKC gamma” value at PKC gamma was less than 500 nM. Moreover, at PKC theta, the “activity in cell-free enzyme assay, PKC theta” value is given as 186 nM. Besides, at Flt-2, the “activity in cell-free enzyme assay, Flt-2” value is less than 10 µM. For the same molecule, the “activity in cell-free enzyme assay, PKC alpha” value on PKC alpha worked out at 21 nM. For the same molecule, the “activity in cell-free enzyme assay, Flt-4” value on Flt-4 is less than 10 µM. The “activity in cell-free enzyme assay, KDR” value on KDR was less than 10 µM. Moreover, in the data set on HEK/APPswe cells, the “effect on cellular viability” value was “without having any effect on cellular viability”.
